This is an account of results in article PMC8457056, “Remodeling of the Fibrillation Pathway of α‐Synuclein by Interaction with Antimicrobial Peptide LL‐III” (Chemistry (Weinheim an Der Bergstrasse, Germany), 2021).

This test has as its system α‐Syn. The test is described as follows: phase-contrast light microscopy of α-Syn droplet and fibril formation. In kind it is biochemical, human. Here is the method:
Figure 1 A) Phase‐contrast light microscopy snapshots of 100 μM and 200 μM α‐Syn solutions collected 2, 4, 7, 9 and 16 days after incubation of the monomeric α‐Syn. B) Phase‐contrast light microscopy snapshots of a solution of 100 μM α‐Syn in the presence of the reported concentration of antimicrobial peptide LL‐III. Each sample was prepared by mixing the monomeric form of α‐Syn with LL‐III. The pictures were taken after 9 and 16 days of incubation. For the snapshots after 16 days, at each peptide concentration, two different regions of the cover slip were sampled, showing the presence of discrete droplets as well as droplet clusters in solution. C) Phase‐contrast light and fluorescence microscopy snapshots of a 100 μM α‐Syn solution in the presence of 50 μM LL‐III (total peptide concentration, the concentration of the carboxyfluorescein‐labelled peptide was 1 μM). All the experiments were performed at room temperature (25 °C) in 20 mM sodium acetate buffer, pH 5.0. The scale bar is 30 μm.
To reveal if the short antimicrobial peptide LL‐III is able to affect the fibril formation of α‐Syn, we performed a series of microscopy experiments by using 100 μM of α‐Syn and varying the concentration of LL‐III between 50 μM and 500 μM. The samples were prepared by mixing a solution of LL‐III peptide and α‐Syn in the monomeric state and taking pictures after 9 and 16 days. The results are collected in Figure 1B. […] After 9 days, droplets as well as clusters thereof were visible. The size of the clusters depended on the LL‐III concentration. Higher peptide concentrations promoted the association of more droplets. […] To confirm partitioning of the LL‐III peptide in the α‐Syn droplets, complementary fluorescence microscopy experiments were performed using a carboxyfluorescein‐labelled LL‐III peptide.
The lyophilized powders of the labeled and unlabeled LL-III peptide were purchased from GenScript, Germany.
The sequence of the LL-III peptide is NH2-VNWKKIL GKIIKVVK -CONH2. In th e labeled peptide, the fluorophore 6-carboxyfluorescein (FAM) was covalently attached to the N-terminus of the peptide. All the solutions were pre-pared in 20 mM sodium acetate buffer at pH 5.0. Deionized water was used for the buffer and all sample prepara- […]
Expression and purification of α-synuclein
The expression and purification of α-synuclein (α-Syn) was carried out as described before.[1,2] The plasmid was purchased from GenScript. The plasmid pT7- 7 expressing human α-synuclein was transformed into Escherichia coli strain BL21 (DE3). A single colony was picked and inoculated into 100 m l LB medium containing 150 μg/m l ampicillin and grown at 37°C with shaking at 250 rpm until the absorbance at 600 nm reached 0.8. Induction was then carried out by adding 1 mM IPTG (final concentration) and the culture was further grown under similar con-ditions for 3 h. The cells were harvested, resuspended in 0.75 ml of buffer (50 mM Tris-HCl, pH 7.5, 10 mM EDTA and 150 mM NaCl) and frozen at - 80 °C. Tubes containing frozen cells were placed in a boiling water bath for 7 min and the supernatant collected after centrifugation at maximum speed for […]. Streptomycin sulfate (136 μl/ml of supernatant) and glacial acetic acid (228 μl/ml of supernatant) were added and centrifuged for 2 min. Again, t he supernatant was recovered and precipitated with ammonium sulfate (saturated ammonium sulfate at 4°C was used 1:1, v/v, with supernatant). […]

Regarding NH2-VNWKKIL GKIIKVVK -CONH2 [LL‐III], for the setting “100 μM monomeric α-Syn, LL-III 50–500 μM, 9 and 16 days, 20 mM sodium acetate, pH 5.0, 25 °C”, the “inhibition of α-Syn fibril formation” value was “LL‐III inhibits formation of the amyloidogenic state of the protein”. In addition, the “inhibition of fibril formation at 50 μM LL-III” value (100 μM α-Syn, 50 μM LL-III, 20 mM sodium acetate, pH 5.0, 25 °C) was “the formation of fibrils was already inhibited”. Further, the number of droplets result (100 μM α-Syn, 200 μM and 500 μM LL-III, pH 5.0, 25 °C) is given as “the number of droplets was significantly increased”. Further, under “100 μM α-Syn, LL-III 50–500 μM, 16 days, pH 5.0, 25 °C”, the “effect on droplet condensate after 16 days” value is on record as “fostered formation of the droplet condensate”. For the same substance, the “decondensation of the droplets” value (conclusion) was “No decondensation of the droplets takes place”.
